≈ marks a conversion by molar mass, not a printed value. Structures can show the parent of a compound that is named as a salt. Where two headings read alike, the source gives them in different places.
Assay: Determination of drug solubility in aqueous and organic solvent;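 note: solid drug suspended at 50 mg/mL nominal in each solvent, vortexed and sonicated, then dissolved concentration in filtered supernatant quantified by HPLC against a calibration curve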
Format: physicochemical
Settings: for solubility: thermodynamic from solid
[1] = organic solvent or mixture, Table 3A, DMSO, read-out: Solubility DMSO
[2] = Table 3A, water, drug added to 50 mg/mL, read-out: Solubility Water
[3] = organic solvent or mixture, Table 3B, DMSO, read-out: Solubility DMSO
[4] = Table 3B, water, drug added to 50 mg/mL, read-out: Solubility Water

Description: For each test, approximately 5-10 mg was transferred to a 10 mL glass vial. Aqueous or organic solvent was added to each vial to achieve an overall concentration of 50 mg/mL. After vortexing aggressively for 2-3 minutes and sonicating in a bath sonicator for 5 minutes, undissolved drug was spun down at 1200 rpm for 5 minutes to generate a pellet. The supernatant was collected and filtered through a 0.2 μm nylon syringe filter into HPLC vials for drug content analysis. Drug concentration was determined by comparing against a standard calibration curve.

| Structure (SMILES) | solubility [1] | solubility [2] | solubility [3] | solubility [4] | other results |
| --- | --- | --- | --- | --- | --- |
| CC(=O)N(C[C@@H](COc1nsnc1N1CCOCC1)OC(=O)OC(C)(C)C)C(C)(C)C [Compound 37-2, Timolol-O-Boc-N-acetate] | > 50 mg/mL | < 1 mg/mL | – | – | – |
| CCCCCCCCCCCCCCCCCC(=O)O[C@@H](C)C(=O)O[C@@H](C)C(=O)O[C@@H](C)C(=O)O[C@@H](C)C(=O)O[C@@H](C)C(=O)O[C@@H](C)C(=O)O[C@@H](CNC(C)(C)C)COc1nsnc1N1CCOCC1 [Compound 42-2, Octadecanoic acid (S)-1-((S)-1-{(S)-1-[(S)-1-((S)-1-{(S)-1-[(S)-1-(tert-butylamino-methyl)-2-(4-morpholin-4-yl-[1,2,5]thiadiazol-3-yloxy)-ethoxycarbonyl]-ethoxycarbonyl}-ethoxycarbonyl)-ethoxycarbonyl]-ethoxycarbonyl}-ethoxycarbonyl)-ethyl ester maleate] | > 50 mg/mL | < 1 mg/mL | – | – | – |
| CCCCCCCCCCCCCCCCCC(=O)O[C@@H](C)C(=O)O[C@@H](C)C(=O)O[C@@H](C)C(=O)O[C@@H](C)C(=O)O[C@@H](C)C(=O)O[C@@H](C)C(=O)O[C@@H](CNC(C)(C)C)COc1nsnc1N1CCOCC1.Cl [Compound 43-1, Octadecanoic acid (5)-1-((S)-1-{(S)-1-[(S)-1-((S)-1-{(S)-1-[(S)-1-(tert-butylamino-methyl)-2-(4-morpholin-4-yl-[1,2,5]thiadiazol-3-yloxy)-ethoxycarbonyl]-ethoxycarbonyl}-ethoxycarbonyl)-ethoxycarbonyl]-ethoxycarbonyl}-ethoxycarbonyl)-ethyl ester hydrochloride] | – | – | – | – | Solubility DMSO (Table 3A, DMSO): >50 mg/mL; Solubility Water (Table 3A, water, drug added to 50 mg/mL): 6.25 mg/mL; aqueous solubility (aqueous solution): 6.25 mg/mL |
| CC(=O)O[C@H](C)C(=O)O[C@@H](CNC(C)(C)C)COc1nsnc1N1CCOCC1.O=C(O)/C=C\C(=O)O [Compound 44-2, Timolol-acetyl PLA (n=1) maleate] | > 50 mg/mL | < 1 mg/mL | – | – | – |
| CC/C=C\C/C=C\C/C=C\C/C=C\C/C=C\C/C=C\CCC(=O)O[C@@H](CNC(C)(C)C)COc1nsnc1N1CCOCC1.O=C(O)/C=C\C(=O)O [Compound 53-3, (4Z,7Z,10Z,13Z,16Z,19Z)-Docosa-4,7,10,13,16,19-hexaenoic acid (S)-1-(tert-butylamino-methyl)-2-(4-morpholin-4-yl-[1,2,5]thiadiazol-3-yloxy)-ethylester maleate] | – | – | > 100 mg/mL | < 1 mg/mL | – |
| CCCCCCCCCCCCCCCCCC(=O)O[C@@H](C)C(=O)O[C@@H](C)C(=O)O[C@H](COc1nsnc1N1CCOCC1)CN(C(C)=O)C(C)(C)C [Compound 66-1, N-Acyl-Timolol-PLA (n = 2) Stearate] | – | – | > 100 mg/mL | < 1 mg/mL | – |
| CCCCCCCCCCCCCCCCCC(=O)O[C@@H](C)C(=O)O[C@@H](C)C(=O)O[C@@H](C)C(=O)O[C@@H](C)C(=O)O[C@H](COc1nsnc1N1CCOCC1)CN(C(C)=O)C(C)(C)C [Compound 67-1, N-Acyl-Timolol-PLA (n = 4) Stearate] | – | – | 70 mg/mL (≈ 76.7 mM) | < 1 mg/mL | – |
| CC(=O)N(C[C@@H](COc1nsnc1N1CCOCC1)OC(=O)[C@H](C)OC(=O)[C@H](C)O)C(C)(C)C [Compound 69-1] | – | – | > 100 mg/mL | < 6.3 mg/mL | – |
| CCCCC/C=C\C/C=C\CCCCCCCC(=O)O[C@@H](CNC(C)(C)C)COc1nsnc1N1CCOCC1.Cl [Compound 71-1, Timolol-O-Linoleic Acid-HCl] | – | – | > 50 mg/mL | > 25 mg/mL | – |
| CC(C)(C)NC[C@@H](COc1nsnc1N1CCOCC1)OC(=O)CCCCCCCCC(=O)O[C@@H](CNC(C)(C)C)COc1nsnc1N1CCOCC1.O=C(O)/C=C\C(=O)O [Compound 75-1, Timolol-Sebacic Acid-Timolol Maleate] | – | – | > 100 mg/mL | < 1 mg/mL | – |
| CC(C)(C)NC[C@@H](COc1nsnc1N1CCOCC1)OC(=O)CCC(=O)O[C@@H](CNC(C)(C)C)COc1nsnc1N1CCOCC1.O=C(O)/C=C\C(=O)O [Compound 76-4, Timolol-succinic acid-Timolol-maleate] | – | – | > 100 mg/mL | > 6.25 mg/mL | – |
| CC(=O)O[C@@H](C)C(=O)O[C@@H](C)C(=O)O[C@@H](C)C(=O)O[C@@H](C)C(=O)O[C@@H](C)C(=O)O[C@@H](C)C(=O)O[C@@H](C)C(=O)O[C@@H](C)C(=O)N1CCN=C1Nc1ccc2nccnc2c1Br [Compound 109-1, Brimonidine-acetyl PLA(n=8)] | > 50 mg/mL | < 0.1 mg/mL | – | – | – |
| CC(=O)O[C@@H](C)C(=O)O[C@@H](C)C(=O)N1CCN(C(=O)[C@H](C)OC(=O)[C@H](C)OC(C)=O)C1=Nc1ccc2nccnc2c1Br [Compound 111-4, Brimonidine-bis-acetyl PLA(n=2)] | > 50 mg/mL | < 1 mg/mL | – | – | – |
| CC(=O)OC(C)C(=O)OC(C)C(=O)OC(C)C(=O)OC(C)C(=O)N1CCN(C(C)=O)C1=Nc1ccc2nccnc2c1Br (stereo not drawn) [Compound 115-1, Brimonidine-acetyl PLA(n=4)-N-Acetate] | 100 mg/mL (≈ 150 mM) | < 0.2 mg/mL | – | – | – |

Further lines, with some results ahead:

| solubility [1] | solubility [2] | solubility [3] | solubility [4] | Structure (SMILES) | other results |
| --- | --- | --- | --- | --- | --- |
| > 50 mg/mL | < 1 mg/mL | – | – | CC(C)(C)NC[C@@H](COc1nsnc1N1CCOCC1)OC(=O)OC(C)(C)C [Compound 36-2, Carbonic acid tert-butyl ester (S)-1-(tert-butylamino-methyl)-2-(4-morpholin-4-yl-[1,2,5]thiadiazol-3-yloxy)-ethyl ester] | – |
| – | – | > 100 mg/mL | < 1 mg/mL | CC/C=C\C/C=C\C/C=C\C/C=C\C/C=C\C/C=C\CCC(=O)O[C@H](COc1nsnc1N1CCOCC1)CN(C(C)=O)C(C)(C)C [Compound 68-1, N-Acyl-Timolol-DHA] | – |
| – | – | > 100 mg/mL | < 1 mg/mL | CC(C)(C)NC[C@@H](COc1nsnc1N1CCOCC1)OC(=O)CCCC(=O)O[C@@H](CNC(C)(C)C)COc1nsnc1N1CCOCC1.O=C(O)/C=C\C(=O)O [Compound 77-1, Timolol-glutaric acid-Timolol-maleate] | – |
| – | – | > 100 mg/mL | < 1 mg/mL | CC(C)(C)NC[C@@H](COc1nsnc1N1CCOCC1)OC(=O)/C=C/C(=O)O[C@@H](CNC(C)(C)C)COc1nsnc1N1CCOCC1.O=C(O)/C=C\C(=O)O.O=C(O)/C=C\C(=O)O [Compound 78-1, Timolol-fumurate-Timolol-maleate] | – |
| – | – | > 100 mg/mL | < 1 mg/mL | CC/C=C\C/C=C\C/C=C\C/C=C\C/C=C\C/C=C\CCC(=O)NS(=O)(=O)c1cc2c(s1)S(=O)(=O)[C@@H](C)C[C@@H]2NCC [Compound 80-3, (4S,6S)-4-Ethylamino-6-methyl-7,7-dioxo-4,5,6,7-tetrahydro-7lambda*6*-thieno[2,3-b]thiopyran-2-sulfonic acid ((4Z,7Z,10Z,13Z,16Z,19Z)-docosa-4,7,10,13,16,19-hexanoyl)-amide] | solubility (organic solvent or mixture, Table 3B, DCM, read-out: Solubility DCM): > 50 mg/mL |
| – | – | > 50 mg/mL | – | COc1cccc(CN(CCOC(=O)[C@H](C)OC(=O)[C@H](C)OC(=O)[C@H](C)OC(=O)[C@H](C)OC(C)=O)C(=O)Nc2ccc(-c3cn[nH]c3)cc2)c1 [Compound 88-3, SR5834-acetyl PLA(n=4)] | – |
| – | – | 50 mg/mL (≈ 48.7 mM) | < 1 mg/mL | COc1cccc(CN(CCOC(=O)[C@H](C)OC(=O)[C@H](C)OC(=O)[C@H](C)OC(=O)[C@H](C)OC(C)=O)C(=O)Nc2ccc(-c3cnn(C(=O)[C@H](C)OC(=O)[C@H](C)OC(=O)[C@H](C)OC(=O)[C@H](C)OC(C)=O)c3)cc2)c1 [Compound 113-1, SR5834-bis-acetyl PLA(n=4)] | – |
| 100 mg/mL (≈ 192 mM) | 1 mg/mL (≈ 1.92 mM) | – | – | CC(=O)O[C@@H](C)C(=O)O[C@@H](C)C(=O)N1CCN(C(C)=O)C1=Nc1ccc2nccnc2c1Br [Compound 114-4, Brimonidine-acetyl PLA(n=2)-N-Acetate] | – |

Reference: US20240092745A1, “DRUGS AND COMPOSITIONS FOR THE TREATMENT OF OCULAR DISORDERS” (Graybug Vision, Inc., priority 2017, published 2024)
